Measurements taken from the supplement of paper PMC13207355.
± gives the standard deviation of the averaged measurements.

Experiments:
Conditions in all cases: exposure time: 72 h
E34 [1] = patient-derived glioblastoma stem cells of proneural subtype; assay: phenotypic distance (Euclidean, principal components) from DMSO controls (arbitrary units); higher = stronger morphological change
E57 [2] = patient-derived glioblastoma stem cells of mesenchymal subtype; assay: as above
FT3469 [3] = normal neural stem cell line; assay: as above
E13 [4] = patient-derived glioblastoma stem cells of classical subtype; assay: as above
E28 [5] = patient-derived glioblastoma stem cells of classical subtype; assay: as above
E21 [6] = patient-derived glioblastoma stem cells of mesenchymal subtype; assay: as above
E31 = patient-derived glioblastoma stem cells of proneural subtype; assay: as above
E34 [7] = assay: surviving fraction (nuclei count normalised to DMSO); higher = more cells surviving (less toxic)
E57 [8] = assay: as above
FT3469 [9] = assay: as above
E13 [10] = assay: as above
E28 [11] = assay: as above
E21 [12] = assay: as above
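For phenotypic distance (Euclidean, principal components) from DMSO controls in this document: cell Painting imaging in 384-well plates, CellProfiler features reduced to at least 20 principal components, Euclidean distance versus same-plate DMSO vehicle wells (0.1% v/v), median over six images per well.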
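For surviving fraction (nuclei count normalised to DMSO) in this document: nuclei counted by high-content imaging of Hoechst-stained cells in laminin-coated 384-well plates, relative to 0.1% DMSO vehicle wells, with staurosporine as cell-death control.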

Cc1ccc(C(=O)Nc2ccc(CN3CCN(C)CC3)c(C(F)(F)F)c2)cc1C#Cc1cnc2cccnn12 [Ponatinib]
phenotypic distance
Conditions | E13 [4] | E21 [6] | E28 [5] | E31 | E34 [1] | E57 [2] | FT3469 [3]
4.1 nM | 1.34 | 2.02 | 0.791 | 0.882 | 1.37 | 3.43 | 1.73
12.3 nM | 1.37 | 5.3 | 1.19 | 1.09 | 1.08 | 4.1 | 2.15
37 nM | 1.75 | 1.87 | 1.3 | 2.13 | 1.46 | 3.63 | 1.36
111.1 nM | 2.38 | 2.05 | 1.57 | 2.63 | 1.59 | 3.38 | 1.58
333.3 nM | 2.71 | 4.01 | 1.29 | 2.59 | 2.93 | 2.19 | 2.72
1000 nM | 3.02 | 9.73 | 2.75 | 11.1 | 3.77 | 4.53 | 4.78
3000 nM | 5.54 | 9.25 | 3.32 | 8.04 | 5.85 | 5.68 | 8.72

CC(C)(C)CC(C)(C)c1ccc(OCCOCC[N+](C)(C)Cc2ccccc2)cc1 [Benzethonium chloride]
phenotypic distance
Conditions | E13 [4] | E21 [6] | E28 [5] | E31 | E34 [1] | E57 [2] | FT3469 [3]
4.11523 nM | 0.537 | 0.773 | 0.718 | 0.922 | 0.73 | 0.566 | 0.694
12.34567901 nM | 0.594 | 1.03 | 0.685 | 0.452 | 0.622 | 0.67 | 1.16
37.037 nM | 0.837 | 0.654 | 0.4 | 0.793 | 0.82 | 0.808 | 0.855
111.1111111 nM | 1.05 | 1 | 0.716 | 0.714 | 0.847 | 0.566 | 0.746
333.333 nM | 0.65 | 0.939 | 0.667 | 1.42 | 0.91 | 0.524 | 0.802
1000 nM | 1.22 | 1.3 | 0.382 | 1.81 | 1.21 | 2.04 | 2.79
3000 nM | 4.92 | 3.86 | 4.89 | 12.9 | 2.98 | 4.76 | 2.88

Cc1cc(C)c(CN2CCc3c(Cl)cc(-c4c(C)noc4C)c(Cl)c3C2=O)c(=O)[nH]1
Conditions | phenotypic distance | surviving fraction
E13 [4], 4.1 nM | 0.55 | –
E13 [4], 4.11523 nM | 0.762 | –
E13 [4], 12.3 nM | 0.528 | –
E13 [4], 12.34567901 nM | 0.464 | –
E13 [4], 37 nM | 0.636 | –
E13 [4], 37.037 nM | 0.555 | –
E13 [4], 111.1 nM | 0.599 | –
E13 [4], 111.1111111 nM | 0.586 | –
E13 [4], 333.3 nM | 0.546 | –
E13 [4], 333.333 nM | 2.27 | –
E13 [4], 1000 nM | 0.5296 ± 0.00081 | –
E13 [4], 3000 nM | 1.67 ± 0.87 | –
E13 [10], 4.1 nM | – | 1.06
E13 [10], 4.11523 nM | – | 0.856
E13 [10], 12.3 nM | – | 1.14
E13 [10], 12.34567901 nM | – | 0.965
E13 [10], 37 nM | – | 0.832
E13 [10], 37.037 nM | – | 1
E13 [10], 111.1 nM | – | 1.12
E13 [10], 111.1111111 nM | – | 1.02
E13 [10], 333.3 nM | – | 0.891
E13 [10], 333.333 nM | – | 1.06
E13 [10], 1000 nM | – | 1.01 ± 0.038
E13 [10], 3000 nM | – | 0.89 ± 0.063
E21 [6], 4.1 nM | 0.846 | –
E21 [6], 4.11523 nM | 0.624 | –
E21 [6], 12.3 nM | 0.502 | –
E21 [6], 12.34567901 nM | 0.663 | –
E21 [6], 37 nM | 0.782 | –
E21 [6], 37.037 nM | 0.448 | –
E21 [6], 111.1 nM | 0.333 | –
E21 [6], 111.1111111 nM | 2.67 | –
E21 [6], 333.3 nM | 1.29 | –
E21 [6], 333.333 nM | 0.358 | –
E21 [6], 1000 nM | 0.536 ± 0.2 | –
E21 [6], 3000 nM | 0.603 ± 0.36 | –
E21 [12], 4.1 nM | – | 0.906
E21 [12], 4.11523 nM | – | 0.889
E21 [12], 12.3 nM | – | 1.06
E21 [12], 12.34567901 nM | – | 0.956
E21 [12], 37 nM | – | 0.952
E21 [12], 37.037 nM | – | 0.858
E21 [12], 111.1 nM | – | 1.03
E21 [12], 111.1111111 nM | – | 1.03
E21 [12], 333.3 nM | – | 0.966
E21 [12], 333.333 nM | – | 0.985
E21 [12], 1000 nM | – | 0.973 ± 0.022
E21 [12], 3000 nM | – | 0.984 ± 0.076
E28 [5], 4.1 nM | 0.563 | –
E28 [5], 4.11523 nM | 0.484 | –
E28 [5], 12.3 nM | 0.447 | –
E28 [5], 12.34567901 nM | 0.539 | –
E28 [5], 37 nM | 0.798 | –
E28 [5], 37.037 nM | 0.532 | –
E28 [5], 111.1 nM | 0.371 | –
E28 [5], 111.1111111 nM | 2.05 | –
E28 [5], 333.3 nM | 0.616 | –
E28 [5], 333.333 nM | 0.607 | –
E28 [5], 1000 nM | 0.701 ± 0.3 | –
E28 [5], 3000 nM | 0.617 ± 0.34 | –
E28 [11], 4.1 nM | – | 0.912
E28 [11], 4.11523 nM | – | 1.06
E28 [11], 12.3 nM | – | 1.07
E28 [11], 12.34567901 nM | – | 0.996
E28 [11], 37 nM | – | 0.901
E28 [11], 37.037 nM | – | 1.05
E28 [11], 111.1 nM | – | 0.947
E28 [11], 111.1111111 nM | – | 0.947
E28 [11], 333.3 nM | – | 0.95
E28 [11], 333.333 nM | – | 1.17
E28 [11], 1000 nM | – | 0.98 ± 0.18
E28 [11], 3000 nM | – | 0.991 ± 0.028
E34 [1], 4.1 nM | 0.88 | –
E34 [1], 4.11523 nM | 0.409 | –
E34 [1], 12.3 nM | 0.682 | –
E34 [1], 12.34567901 nM | 0.739 | –
E34 [1], 37 nM | 1.1 | –
E34 [1], 37.037 nM | 0.359 | –
E34 [1], 111.1 nM | 0.667 | –
E34 [1], 111.1111111 nM | 0.478 | –
E34 [1], 333.3 nM | 1.23 | –
E34 [1], 333.333 nM | 0.552 | –
E34 [1], 1000 nM | 0.66 ± 0.035 | –
E34 [1], 3000 nM | 1.1 ± 0.52 | –
E34 [7], 4.1 nM | – | 0.921
E34 [7], 4.11523 nM | – | 0.993
E34 [7], 12.3 nM | – | 1.13
E34 [7], 12.34567901 nM | – | 0.993
E34 [7], 37 nM | – | 0.811
E34 [7], 37.037 nM | – | 0.929
E34 [7], 111.1 nM | – | 1.11
E34 [7], 111.1111111 nM | – | 0.938
E34 [7], 333.3 nM | – | 0.85
E34 [7], 333.333 nM | – | 1.01
E34 [7], 1000 nM | – | 0.861 ± 0.086
E34 [7], 3000 nM | – | 0.96 ± 0.036
E57 [2], 4.1 nM | 0.289 | –
E57 [2], 4.11523 nM | 0.517 | –
E57 [2], 12.3 nM | 0.432 | –
E57 [2], 12.34567901 nM | 0.412 | –
E57 [2], 37 nM | 0.351 | –
E57 [2], 37.037 nM | 0.334 | –
E57 [2], 111.1 nM | 0.307 | –
E57 [2], 111.1111111 nM | 0.418 | –
E57 [2], 333.3 nM | 0.28 | –
E57 [2], 333.333 nM | 0.343 | –
E57 [2], 1000 nM | 0.373 ± 0.028 | –
E57 [2], 3000 nM | 0.511 ± 0.018 | –
E57 [8], 4.1 nM | – | 0.932
E57 [8], 4.11523 nM | – | 0.986
E57 [8], 12.3 nM | – | 0.955
E57 [8], 12.34567901 nM | – | 0.938
E57 [8], 37 nM | – | 1.02
E57 [8], 37.037 nM | – | 1.04
E57 [8], 111.1 nM | – | 0.932
E57 [8], 111.1111111 nM | – | 1.01
E57 [8], 333.3 nM | – | 1
E57 [8], 333.333 nM | – | 1.01
E57 [8], 1000 nM | – | 1.02 ± 0.025
E57 [8], 3000 nM | – | 1.06 ± 0.093
FT3469 [3], 4.1 nM | 0.799 | –
FT3469 [3], 4.11523 nM | 0.574 | –
FT3469 [3], 12.3 nM | 0.456 | –
FT3469 [3], 12.34567901 nM | 0.531 | –
FT3469 [3], 37 nM | 3.66 | –
FT3469 [3], 37.037 nM | 0.66 | –
FT3469 [3], 111.1 nM | 0.618 | –
FT3469 [3], 111.1111111 nM | 0.467 | –
FT3469 [3], 333.3 nM | 0.925 | –
FT3469 [3], 333.333 nM | 1.74 | –
FT3469 [3], 1000 nM | 0.694 ± 0.16 | –
FT3469 [3], 3000 nM | 0.451 ± 0.024 | –
FT3469 [9], 4.1 nM | – | 0.866
FT3469 [9], 4.11523 nM | – | 0.918
FT3469 [9], 12.3 nM | – | 0.934
FT3469 [9], 12.34567901 nM | – | 0.961
FT3469 [9], 37 nM | – | 0.862
FT3469 [9], 37.037 nM | – | 0.857
FT3469 [9], 111.1 nM | – | 0.892
FT3469 [9], 111.1111111 nM | – | 1.05
FT3469 [9], 333.3 nM | – | 0.977
FT3469 [9], 333.333 nM | – | 0.9
FT3469 [9], 1000 nM | – | 0.914 ± 0.063
FT3469 [9], 3000 nM | – | 0.971 ± 0.035
